From patent US8802597B2, “Herbicidal pyrimidines” (E I du Pont de Nemours and Company, priority 2003, dated 2014)
Where two headings read alike, the source gives them in different places.

Legend:
Assay type in all cases: in vivo
[1] = test system: Surinam grass (Brachiaria decumbens); experiment: Test B pre/postemergence; conditions: Urochloa decumbens; for pest or weed control at 125 g/ha: 125 g ai/ha; for pest or weed control at 500 g/ha: 500 g ai/ha
Summary of the method: (§1)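 Scores reflect visual comparison with untreated controls, where 0 means no effect and 100 complete control. Plants stayed 13 to 15 days in the greenhouse after pre- or postemergence treatment with compounds carried in a non-phytotoxic solvent and surfactant.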

[2] = test system: barnyardgrass (Echinochloa crus-galli); experiment: Test B pre/postemergence; conditions: Echinochloa crus-galli; for pest or weed control at 125 g/ha: 125 g ai/ha; for pest or weed control at 500 g/ha: 500 g ai/ha
Summary of the method: as §1

[3] = test system: cocklebur (Xanthium strumarium); experiment: Test B pre/postemergence; conditions: Xanthium strumarium; for pest or weed control at 125 g/ha: 125 g ai/ha; for pest or weed control at 500 g/ha: 500 g ai/ha
Summary of the method: as §1

corn (Zea mays) = experiment: Test B pre/postemergence; conditions: Zea mays
Summary of the method: as §1

[4] = test system: crabgrass (Digitaria sanguinalis); experiment: Test B pre/postemergence; conditions: Digitaria sanguinalis; for pest or weed control at 125 g/ha: 125 g ai/ha; for pest or weed control at 500 g/ha: 500 g ai/ha
Summary of the method: as §1

[5] = test system: giant foxtail (Setaria faberii); experiment: Test B pre/postemergence; conditions: Setaria faberi; for pest or weed control at 125 g/ha: 125 g ai/ha; for pest or weed control at 500 g/ha: 500 g ai/ha
Summary of the method: as §1

[6] = test system: lambsquarters (Chenopodium album); experiment: Test B pre/postemergence; conditions: Chenopodium album; for pest or weed control at 125 g/ha: 125 g ai/ha; for pest or weed control at 500 g/ha: 500 g ai/ha
Summary of the method: as §1

[7] = test system: morningglory (Ipomoea coccinea); experiment: Test B pre/postemergence; conditions: Ipomoea; for pest or weed control at 125 g/ha: 125 g ai/ha; for pest or weed control at 500 g/ha: 500 g ai/ha
Summary of the method: as §1

[8] = test system: pigweed (Amaranthus retroflexus); experiment: Test B pre/postemergence; conditions: Amaranthus retroflexus; for pest or weed control at 125 g/ha: 125 g ai/ha; for pest or weed control at 500 g/ha: 500 g ai/ha
Summary of the method: as §1

[9] = test system: velvetleaf (Abutilon theophrasti); experiment: Test B pre/postemergence; conditions: Abutilon theophrasti; for pest or weed control at 125 g/ha: 125 g ai/ha; for pest or weed control at 500 g/ha: 500 g ai/ha
Summary of the method: as §1

[10] = test system: wheat (Triticum aestivum); experiment: Test B pre/postemergence; conditions: Triticum aestivum; for plant injury at 125 g/ha: 125 g ai/ha; for plant injury at 500 g/ha: 500 g ai/ha
Summary of the method: as §1

[11] = test system: blackgrass (Alopecurus myosuroides); experiment: Test B postemergence; conditions: Alopecurus myosuroides, post-emergence
Summary of the method: as §1

wild oat (Avena fatua) = experiment: Test B postemergence; conditions: Avena fatua, post-emergence
Summary of the method: as §1

[12] = test system: barnyardgrass (Echinochloa crus-galli); experiment: Test B flooded paddy test; conditions: Echinochloa crus-galli, Flood, 1000 g ai/ha; scale 0 (no effect) to 100 (complete control); read-out: Plant response rating, Barnyardgrass
Summary of the method: (§2)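 Plants were grown to the 2-leaf stage before treatment, then kept in a greenhouse for 13 to 15 days. Injury was rated visually against untreated controls on a 0 to 100 scale, where 0 is no effect and 100 is complete control.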

[13] = test system: duck salad (Heteranthera limosa); experiment: Test B flooded paddy test; conditions: Heteranthera limosa, Flood, 1000 g ai/ha; scale 0 to 100; read-out: Plant response rating, Ducksalad
Summary of the method: as §2

rice (Oryza sativa) = experiment: Test B flooded paddy test; conditions: Oryza sativa, Flood, 1000 g ai/ha; scale 0 to 100; read-out: Plant response rating, Rice
Summary of the method: as §2

[14] = test system: umbrella sedge (Cyperus difformis); experiment: Test B flooded paddy test; conditions: Cyperus difformis, Flood, 1000 g ai/ha; scale 0 to 100; read-out: Plant response rating, Sedge, Umbrella
Summary of the method: as §2

Compound: Nc1nc(C2CC2)nc(CO)c1Br [Compound 21]
- pest or weed control at 125 g/ha ([1]; post-emergence, Postemergence, scale 0 to 100 (0 no effect, 100 complete control), read-out: Surinam Grass plant response rating): 0%
- pest or weed control at 500 g/ha ([1]; post-emergence, Postemergence, scale 0 to 100, read-out: Plant response rating, Surinam Grass): 0%
- pest or weed control at 125 g/ha ([1]; pre-emergence, Preemergence, scale 0 to 100 (0 no effect, 100 complete control), read-out: Plant response rating, Surinam Grass): 0%
- pest or weed control at 500 g/ha ([1]; pre-emergence, Preemergence, scale 0 to 100 (0 no effect, 100 complete control), read-out: Surinam Grass plant response rating): 20%
- pest or weed control at 125 g/ha ([2]; post-emergence, Postemergence, scale 0 to 100 (0 no effect, 100 complete control), read-out: Barnyardgrass plant response rating): 0%
- pest or weed control at 500 g/ha ([2]; post-emergence, Postemergence, scale 0 to 100, read-out: Plant response rating, Barnyardgrass): 0%
- pest or weed control at 125 g/ha ([2]; pre-emergence, Preemergence, scale 0 to 100 (0 no effect, 100 complete control), read-out: Plant response rating, Barnyardgrass): 0%
- pest or weed control at 500 g/ha ([2]; pre-emergence, Preemergence, scale 0 to 100 (0 no effect, 100 complete control), read-out: Barnyardgrass plant response rating): 10%
- pest or weed control at 125 g/ha ([3]; post-emergence, Postemergence, scale 0 to 100 (0 no effect, 100 complete control), read-out: Cocklebur plant response rating): 0%
- pest or weed control at 500 g/ha ([3]; post-emergence, Postemergence, scale 0 to 100, read-out: Plant response rating, Cocklebur): 10%
- pest or weed control at 125 g/ha ([3]; pre-emergence, Preemergence, scale 0 to 100 (0 no effect, 100 complete control), read-out: Plant response rating, Cocklebur): 30%
- pest or weed control at 500 g/ha ([3]; pre-emergence, Preemergence, scale 0 to 100 (0 no effect, 100 complete control), read-out: Cocklebur plant response rating): 80%
- plant injury at 125 g/ha (corn (Zea mays); post-emergence, Postemergence, 125 g ai/ha, scale 0 to 100 (0 no effect, 100 complete control), read-out: Corn plant response rating): 0%
- Corn plant response rating (crop injury, 0 = no effect, 100 = complete kill) at 500 g/ha (corn (Zea mays); post-emergence, Postemergence, 500 g ai/ha, scale 0 to 100): 0%
- Corn plant response rating (crop injury, 0 = no effect, 100 = complete kill) at 125 g/ha (corn (Zea mays); pre-emergence, Preemergence, 125 g ai/ha, scale 0 to 100 (0 no effect, 100 complete control)): 0%
- pest or weed control at 125 g/ha ([4]; post-emergence, Postemergence, scale 0 to 100 (0 no effect, 100 complete control), read-out: Crabgrass plant response rating): 0%
- pest or weed control at 500 g/ha ([4]; post-emergence, Postemergence, scale 0 to 100, read-out: Plant response rating, Crabgrass): 0%
- pest or weed control at 125 g/ha ([4]; pre-emergence, Preemergence, scale 0 to 100 (0 no effect, 100 complete control), read-out: Plant response rating, Crabgrass): 0%
- pest or weed control at 500 g/ha ([4]; pre-emergence, Preemergence, scale 0 to 100 (0 no effect, 100 complete control), read-out: Crabgrass plant response rating): 60%
- pest or weed control at 125 g/ha ([5]; post-emergence, Postemergence, scale 0 to 100 (0 no effect, 100 complete control), read-out: Foxtail, Giant plant response rating): 0%
- pest or weed control at 500 g/ha ([5]; post-emergence, Postemergence, scale 0 to 100, read-out: Plant response rating, Foxtail, Giant): 0%
- pest or weed control at 125 g/ha ([5]; pre-emergence, Preemergence, scale 0 to 100 (0 no effect, 100 complete control), read-out: Plant response rating, Foxtail, Giant): 0%
- pest or weed control at 500 g/ha ([5]; pre-emergence, Preemergence, scale 0 to 100 (0 no effect, 100 complete control), read-out: Foxtail, Giant plant response rating): 10%
- pest or weed control at 125 g/ha ([6]; post-emergence, Postemergence, scale 0 to 100 (0 no effect, 100 complete control), read-out: Lambsquarters plant response rating): 10%
- pest or weed control at 500 g/ha ([6]; post-emergence, Postemergence, scale 0 to 100, read-out: Plant response rating, Lambsquarters): 20%
- pest or weed control at 125 g/ha ([6]; pre-emergence, Preemergence, scale 0 to 100 (0 no effect, 100 complete control), read-out: Plant response rating, Lambsquarters): 70%
- pest or weed control at 500 g/ha ([6]; pre-emergence, Preemergence, scale 0 to 100 (0 no effect, 100 complete control), read-out: Lambsquarters plant response rating): 80%
- pest or weed control at 125 g/ha ([7]; post-emergence, Postemergence, scale 0 to 100 (0 no effect, 100 complete control), read-out: Morningglory plant response rating): 10%
- pest or weed control at 500 g/ha ([7]; post-emergence, Postemergence, scale 0 to 100, read-out: Plant response rating, Morningglory): 30%
- pest or weed control at 125 g/ha ([7]; pre-emergence, Preemergence, scale 0 to 100 (0 no effect, 100 complete control), read-out: Plant response rating, Morningglory): 50%
- pest or weed control at 500 g/ha ([7]; pre-emergence, Preemergence, scale 0 to 100 (0 no effect, 100 complete control), read-out: Morningglory plant response rating): 90%
- pest or weed control at 125 g/ha ([8]; post-emergence, Postemergence, scale 0 to 100 (0 no effect, 100 complete control), read-out: Pigweed plant response rating): 0%
- pest or weed control at 500 g/ha ([8]; post-emergence, Postemergence, scale 0 to 100, read-out: Plant response rating, Pigweed): 30%
- pest or weed control at 125 g/ha ([8]; pre-emergence, Preemergence, scale 0 to 100 (0 no effect, 100 complete control), read-out: Plant response rating, Pigweed): 50%
- pest or weed control at 500 g/ha ([8]; pre-emergence, Preemergence, scale 0 to 100 (0 no effect, 100 complete control), read-out: Pigweed plant response rating): 70%
- pest or weed control at 125 g/ha ([9]; post-emergence, Postemergence, scale 0 to 100 (0 no effect, 100 complete control), read-out: Velvetleaf plant response rating): 10%
- pest or weed control at 500 g/ha ([9]; post-emergence, Postemergence, scale 0 to 100, read-out: Plant response rating, Velvetleaf): 30%
- pest or weed control at 125 g/ha ([9]; pre-emergence, Preemergence, scale 0 to 100 (0 no effect, 100 complete control), read-out: Plant response rating, Velvetleaf): 10%
- pest or weed control at 500 g/ha ([9]; pre-emergence, Preemergence, scale 0 to 100 (0 no effect, 100 complete control), read-out: Velvetleaf plant response rating): 80%
- plant injury at 125 g/ha ([10]; post-emergence, Postemergence, scale 0 to 100 (0 no effect, 100 complete control), read-out: Wheat plant response rating): 10%
- plant injury at 500 g/ha ([10]; post-emergence, Postemergence, scale 0 to 100, read-out: Plant response rating, Wheat): 20%
- plant injury at 125 g/ha ([10]; pre-emergence, Preemergence, scale 0 to 100 (0 no effect, 100 complete control), read-out: Plant response rating, Wheat): 0%
- plant injury at 500 g/ha ([10]; pre-emergence, Preemergence, scale 0 to 100 (0 no effect, 100 complete control), read-out: Wheat plant response rating): 30%
- pest or weed control at 125 g/ha ([11]; 125 g ai/ha, scale 0 to 100 (0 no effect, 100 complete control), read-out: Blackgrass plant response rating): 10%
- pest or weed control at 500 g/ha ([11]; 500 g ai/ha, scale 0 to 100, read-out: Plant response rating, Blackgrass): 20%
- pest or weed control at 125 g/ha (wild oat (Avena fatua); 125 g ai/ha, scale 0 to 100 (0 no effect, 100 complete control), read-out: Oat, Wild plant response rating): 0%
- pest or weed control at 500 g/ha (wild oat (Avena fatua); 500 g ai/ha, scale 0 to 100, read-out: Plant response rating, Oat, Wild): 0%
- pest or weed control at 1000 g/ha [12]: 60%
- pest or weed control at 1000 g/ha [13]: 80%
- plant injury at 1000 g/ha (rice (Oryza sativa)): 40%
- pest or weed control at 1000 g/ha [14]: 0%
